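Interpolation was linear, between the two tested concentrations surrounding the appropriate level; five concentrations were tested over 48 hours in 96-well plates. Abbreviation: GI50, concentration required for 50% inhibition of growth. TGI marks complete inhibition of growth.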
Legend:
Experiment in all cases: NCI anticancer screen, dose series, 48 h
786-0 renal = system: 786-0 renal
HL-60(TB) leukemia = system: HL-60(TB) leukemia
U251 CNS = system: U251 CNS
IGROV1 ovarian = system: IGROV1 ovarian
OVCAR-3 ovarian = system: OVCAR-3 ovarian
SN12C renal = system: SN12C renal
NCI-H23 lung = system: NCI-H23 lung
SW-620 colon = system: SW-620 colon
HT29 colon = system: HT29 colon
OVCAR-4 ovarian = system: OVCAR-4 ovarian

| SMILES | TGI (786-0 renal) [µM] | TGI (HL-60(TB) leukemia) [µM] | TGI (U251 CNS) [µM] | TGI (IGROV1 ovarian) [µM] | TGI (OVCAR-3 ovarian) [µM] | TGI (SN12C renal) [µM] | TGI (NCI-H23 lung) [µM] | TGI (SW-620 colon) [µM] | TGI (HT29 colon) [µM] | TGI (OVCAR-4 ovarian) [µM] | GI50 (786-0 renal) [µM] | GI50 (HL-60(TB) leukemia) [µM] | GI50 (U251 CNS) [µM] | GI50 (IGROV1 ovarian) [µM] | GI50 (OVCAR-3 ovarian) [µM] | GI50 (SN12C renal) [µM] | GI50 (NCI-H23 lung) [µM] | GI50 (SW-620 colon) [µM] | GI50 (HT29 colon) [µM] | GI50 (OVCAR-4 ovarian) [µM] |
| --- | --- | --- | --- | --- | --- | --- | --- | --- | --- | --- | --- | --- | --- | --- | --- | --- | --- | --- | --- | --- |
| COc1ccc2c(c1)CN([C@@H](C)[C@H]1CC[C@H]3[C@@H]4CC[C@H]5C[C@@H](O)CC[C@]5(C)[C@H]4CC[C@]13C)CO2 | 2.7 | 5.91 | 3.35 | 14.6 | 18 | 22.6 | 5.12 | > 23.6 | 3.63 | 17.8 |  |  |  |  |  |  |  |  |  |  |
| CCC1=CCN(c2cc(C)ccn2)OC1c1ccccc1 (stereo not drawn) | > 100 | 41.8 | 46.2 | > 100 | > 100 | > 100 | > 100 | > 100 | > 100 | > 100 |  |  |  |  |  |  |  |  |  |  |
| C1=Cc2nc1c(-c1ccccc1)c1ccc([nH]1)c(-c1ccccc1)c1nc(c(-c3ccccc3)c3ccc([nH]3)c2-c2ccccc2)C=C1 | > 100 | > 100 | > 100 | > 100 | > 100 | > 100 | > 100 | > 100 | > 100 | > 100 |  |  |  |  |  |  |  |  |  |  |
| CC(=O)OC(C(=O)[O][Sn]([CH3])([CH3])[CH3])c1ccccc1 (stereo not drawn) | > 100 | > 100 | > 100 | > 100 | > 100 | > 100 | > 100 | > 100 | > 100 | > 100 | > 100 | > 100 | > 100 | > 100 | > 100 | > 100 | > 100 | > 100 | > 100 | > 100 |
| O=C(Nc1cccc2[nH]c(C(F)(F)F)nc12)c1cc(Cl)ccc1Cl | 12.1 | 7.53 | 14.1 | > 100 | 10.3 | 9.59 | 7.78 | 14.8 | 14.7 | > 100 | 3.01 | 2.87 | 3.47 | 6.04 | 3.4 | 2.78 | 2.81 | 3.6 | 3.62 | 2.59 |
| N=c1ccc2nc3ccc(N)cc3sc-2c1 | 29.7 | 20.8 | 10.5 | 75 | 13.7 | 11 | 14.3 | 23.5 | 40.8 | 13.5 | 9.99 | 1.9 | 3.45 | 6.77 | 3.21 | 3.19 | 2.77 | 3.92 | 11.1 | 3.78 |
| COc1cc(OCc2cccc(-c3ccccc3)c2C)cc(OC)c1CN1CCCCC1C(=O)NCCOCCOCCN (stereo not drawn) | 3.53 | 4.07 | 4.44 | 12.1 | 5.03 | 7.01 | 19.2 | 3.87 | 6.65 | 6.48 | 1.83 | 1.91 | 2.1 | 3.06 | 2.11 | 2.47 | 5.22 | 1.9 | 2.38 | 2.33 |
| COc1cc(OC)c2sc(-c3ccc(-n4cncc4-c4ccc(OC)c(OC)c4)cc3)nc2c1 | > 100 | > 100 | > 100 | > 100 | 35.9 | > 100 | > 100 | > 100 | > 100 | > 100 | > 100 | 3.09 | 9.19 | 56.1 | 3.85 | > 100 | > 100 | > 100 | 7.13 | 4.21 |
| C=C1C(=O)O[C@H]2[C@H]1CC/C(Cn1cc(-c3ccc(N)cc3)nn1)=C\CC[C@@]1(C)O[C@@H]21 | 4.62 | 6.43 | 16.5 | 14.1 | 3.99 | 15.1 | 7.72 | 6.01 | 5.47 | 18.6 | 1.98 | 2.23 | 4.16 | 2.96 | 1.62 | 3.48 | 2.49 | 2.16 | 2.14 | 4.9 |
| C=C1C(=O)OC2C1CCC(C)C1(O)C=CC(=O)C21C (stereo not drawn) | > 10 | 9.5 | > 10 | > 10 | > 10 | > 10 | > 10 | > 10 | > 10 | > 10 |  |  |  |  |  |  |  |  |  |  |
| CCN1[C@@H](C(=O)NC23CCC(C(=O)O)(CC2)CC3)[C@H](c2cccc(Cl)c2F)[C@]2(C(=O)Nc3cc(Cl)ccc32)C12CCCCC2 | 12.1 | 6 | 15.5 | 15.5 | 7.74 | 19.4 | 17.4 | 17.1 | 14.8 | 15.5 | 2.94 | 1.96 | 3.29 | 0.99 | 2.53 | 3.67 | 3.53 | 3.92 | 3.06 | 3.37 |
| CCCCCCCCCc1ccc(OCCOCCOCCOCCOCCOCCOCCOCCOCCO)cc1 | 4.12 | 1.37 | 1.25 | 4.32 | 2.29 | 1.59 | 3.26 | 5.55 | 1.98 | 5.04 | 1.02 | 0.31 | 0.458 | 0.999 | 0.428 | 0.61 | 0.257 | 1.19 | 0.685 | 0.131 |
| COC(=O)C(=O)C(CC(=O)Nc1ccc(C)cc1)C(=O)OC (stereo not drawn) | > 100 | > 100 | > 100 | > 100 | > 100 | > 100 | > 100 | > 100 | > 100 | > 100 |  |  |  |  |  |  |  |  |  |  |
| Cc1cc(CCl)c(C)cc1CCl |  | 13.2 | 4.27 | 6.25 | 4.04 | 13.6 | 18.5 | 5.74 | 3.68 | 12.8 | 2.19 | 2.98 | 1.47 | 1.47 | 1.76 | 0.605 | 3.77 | 1.34 | 1.44 | 3.4 |
| COc1cc(F)ccc1-c1cc(Nc2cc(CS(C)(=N)=O)ccn2)ncc1F (stereo not drawn) | > 47 | 0.228 | > 100 | > 100 | > 100 | > 100 | 1.24 | > 33.1 | > 100 |  | 0.0446 | 0.0284 | 0.0683 | 0.0571 | 0.0803 | 0.0583 | 0.0982 | 0.0559 | 0.0945 | 0.227 |
